Results reported in patent publication US20250129069A1, “TRIAZOLO WRN INHIBITORS” (Nimbus Wadjet, Inc., priority 2023, published 2025).
Where two headings read alike, the source gives them in different places.

Columns and labels:
[1] = target: human Werner helicase (WRN, amino acids 517-1235 with L1074F point mutation) (Homo sapiens (Human), UniProt Q14191, L1074F); experiment: WRN (BV08) ADP-Glo assay; assay type: biochemical; conditions: human WRN (aa 517-1235, L1074F), read-out: ADP-Glo_hWRN_IC50
Chain of human Werner helicase (WRN, amino acids 517-1235 with L1074F point mutation) (Q14191 other isoform, or with tags, fused parts or gaps L1074F (already in the parent)): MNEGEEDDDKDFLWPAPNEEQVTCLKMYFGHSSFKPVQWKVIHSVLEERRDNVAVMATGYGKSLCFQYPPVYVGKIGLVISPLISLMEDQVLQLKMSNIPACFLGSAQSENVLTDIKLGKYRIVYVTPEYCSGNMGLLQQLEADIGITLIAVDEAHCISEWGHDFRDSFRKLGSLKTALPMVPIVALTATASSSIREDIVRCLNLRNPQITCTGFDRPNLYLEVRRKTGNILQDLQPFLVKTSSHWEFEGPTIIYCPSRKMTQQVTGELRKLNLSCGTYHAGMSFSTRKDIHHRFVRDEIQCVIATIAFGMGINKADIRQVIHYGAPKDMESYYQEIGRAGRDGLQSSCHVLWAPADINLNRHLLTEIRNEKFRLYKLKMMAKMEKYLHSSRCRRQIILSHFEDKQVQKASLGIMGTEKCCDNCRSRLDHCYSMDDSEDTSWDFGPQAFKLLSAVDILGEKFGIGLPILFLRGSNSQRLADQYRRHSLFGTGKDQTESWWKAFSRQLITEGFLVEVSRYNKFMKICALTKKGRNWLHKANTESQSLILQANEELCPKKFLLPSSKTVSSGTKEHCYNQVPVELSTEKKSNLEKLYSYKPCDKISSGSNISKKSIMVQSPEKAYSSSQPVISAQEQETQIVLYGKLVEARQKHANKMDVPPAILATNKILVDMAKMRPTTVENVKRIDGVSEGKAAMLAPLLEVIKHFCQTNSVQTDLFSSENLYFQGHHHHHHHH
How it was run: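 Untagged WRN 517-1235 (L1074F), Sf9/baculovirus-expressed, 0.15 nM, preincubated 15 min with compound, then 5 μM ATP and 0.1 nM annealed DNA duplex added; 60 min at 25 °C in Bicine pH 7.5, 1 mM MgCl2, 1% DMSO. ADP-Glo luminescence; % inhibition vs DMSO and 20 μM NSC-617145 controls, four-parameter IC50 fit.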

[2] = test system: p21 induction in HCT 116 cells; experiment: p21 induction in cells (In-Cell Western, p21/GAPDH ratio); assay type: cell-based; conditions: 24 h compound incubation, read-out: p21_EC50
How it was run: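 HCT 116 cells treated 24 h at 37° C with 11-point, 2-fold dilutions typically from 10 μM, in duplicate. Fixed cells co-stained for p21 (800 nm) and GAPDH (700 nm) by In-Cell Western. p21/GAPDH ratio normalised between DMSO and reference WRN inhibitor controls, and EC50 obtained by nonlinear regression.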

Structure (SMILES) | IC50 [1] [nM] | EC50 ([2]; Homo sapiens) [nM] | EC50 [2] [nM]
CCc1c(N2CCN(C(=O)c3c(OC)ncc(C)c3O)CC2)c(=O)c2nn(C3=CCOCC3)nc2n1CC(=O)NC12CC(C3CC3)(C1)C2 [Compound I-97, N-{3-cyclopropylbicyclo[1.1.1]pentan-1-yl}-2-[2-(3,6-dihydro-2H-pyran-4-yl)-5-ethyl-6-[4-(4-hydroxy-2-methoxy-5-methylpyridine-3-carbonyl)piperazin-1-yl]-7-oxo-2H,4H,7H-[1,2,3]triazolo[4,5-b]pyridin-4-yl]acetamide] | 5 to 50 | ≤ 500 | –
CCc1c(N2CCN(C(=O)c3c(OC)ncc([C@H]4CCOC4)c3O)CC2)c(=O)c2nn(-c3ccnc(OC)c3)nc2n1CC(=O)NC12CC(C(C)C)(C1)C2 (single isomer, unassigned) [Compound I-43] | 5 to 50 | 500 to 2000 | –
CCc1c(N2CCN(C(=O)c3ncnc(C)c3O)[C@H]3CC[C@@H]32)c(=O)c2nn(C3=CCOCC3)nc2n1CC(=O)Nc1ccc(C(F)F)cc1F [Compound I-154, N-[4-(difluoromethyl)-2-fluorophenyl]-2-[2-(3,6-dihydro-2H-pyran-4-yl)-5-ethyl-6-[(1S,6S)-5-(5-hydroxy-6-methylpyrimidine-4-carbonyl)-2,5-diazabicyclo[4.2.0]octan-2-yl]-7-oxo-2H,4H,7H-[1,2,3]triazolo[4,5-b]pyridin-4-yl]acetamide] | 5 to 50 | ≤ 500 | –
CCc1c(N2CCN(C(=O)c3ncnc(C)c3O)[C@H]3CC[C@@H]32)c(=O)c2nn(C3=CCOCC3)nc2n1CC(=O)NC12CC(C(C)C)(C1)C2 [Compound I-49, 2-[2-(3,6-dihydro-2H-pyran-4-yl)-5-ethyl-6-[(1S,6S)-5-(5-hydroxy-6-methylpyrimidine-4-carbonyl)-2,5-diazabicyclo[4.2.0]octan-2-yl]-7-oxo-2H,4H,7H-[1,2,3]triazolo[4,5-b]pyridin-4-yl]-N-[3-(propan-2-yl)bicyclo[1.1.1]pentan-1-yl]acetamide] | 5 to 50 | – | ≤ 500
CCc1c(N2CCN(C(=O)c3c(OC)ncc(C)c3O)CC2)c(=O)c2nn(-c3ccnc(OC)c3)nc2n1CC(=O)NC12CC(C(C)C)(C1)C2 [Compound I-114, 2-{5-ethyl-6-[4-(4-hydroxy-2-methoxy-5-methylpyridine-3-carbonyl)piperazin-1-yl]-2-(2-methoxypyridin-4-yl)-7-oxo-2H,4H,7H-[1,2,3]triazolo[4,5-b]pyridin-4-yl}-N-[3-(propan-2-yl)bicyclo[1.1.1]pentan-1-yl]acetamide] | 5 to 50 | ≤ 500 | –
CCc1c(N2CCN(C(=O)c3ncnc(C)c3O)[C@H]3CC[C@@H]32)c(=O)c2nn(-c3ccnc(OC)c3)nc2n1CC(=O)NC1CC2(C1)CC(F)(F)C2 [Compound I-70, N-{6,6-difluorospiro[3.3]heptan-2-yl}-2-{5-ethyl-6-[(1S,6S)-5-(5-hydroxy-6-methylpyrimidine-4-carbonyl)-2,5-diazabicyclo[4.2.0]octan-2-yl]-2-(2-methoxypyridin-4-yl)-7-oxo-2H,4H,7H-[1,2,3]triazolo[4,5-b]pyridin-4-yl}acetamide] | 5 to 50 | 500 to 2000 | –
CCc1c(N2CCN(C(=O)c3ncnc(C)c3O)[C@H]3CC[C@@H]32)c(=O)c2nn(-c3ccnc(OC)c3)nc2n1CC(=O)NC1CCC2(CCC2)C1 (stereo partly drawn) [Compound I-66, 2-{5-ethyl-6-[(1S,6S)-5-(5-hydroxy-6-methylpyrimidine-4-carbonyl)-2,5-diazabicyclo[4.2.0]octan-2-yl]-2-(2-methoxypyridin-4-yl)-7-oxo-2H,4H,7H-[1,2,3]triazolo[4,5-b]pyridin-4-yl}-N-{spiro[3.4]octan-6-yl}acetamide] | 5 to 50 | ≤ 500 | –
CCc1c(N2CCN(C(=O)c3ncnc(C)c3O)CC2)c(=O)c2nn(-c3cc(C)n(C)n3)nc2n1CC(=O)Nc1ccc(C(F)(F)F)cc1Cl [Compound I-113, N-[2-chloro-4-(trifluoromethyl)phenyl]-2-[2-(1,5-dimethyl-1H-pyrazol-3-yl)-5-ethyl-6-[4-(5-hydroxy-6-methylpyrimidine-4-carbonyl)piperazin-1-yl]-7-oxo-2H,4H,7H-[1,2,3]triazolo[4,5-b]pyridin-4-yl]acetamide] | 5 to 50 | ≤ 500 | –
CCc1c(N2CCN(C(=O)c3c(O)ccnc3OC)CC2)c(=O)c2nn(-c3ccnc(OC)c3)nc2n1CC(=O)NC12CC(C(F)(F)F)(C1)C2 [Compound I-143, 2-{5-ethyl-6-[4-(4-hydroxy-2-methoxypyridine-3-carbonyl)piperazin-1-yl]-2-(2-methoxypyridin-4-yl)-7-oxo-2H,4H,7H-[1,2,3]triazolo[4,5-b]pyridin-4-yl}-N-[3-(trifluoromethyl)bicyclo[1.1.1]pentan-1-yl]acetamide] | 5 to 50 | 500 to 2000 | –
CCc1c(N2CCN(C(=O)c3ncnc(C)c3O)[C@H]3CC[C@@H]32)c(=O)c2nn(-c3cccc(C)n3)nc2n1CC(=O)NC12CC(C(C)C)(C1)C2 [Compound I-179, 2-{5-ethyl-6-[(1S,6S)-5-(5-hydroxy-6-methylpyrimidine-4-carbonyl)-2,5-diazabicyclo[4.2.0]octan-2-yl]-2-(6-methylpyridin-2-yl)-7-oxo-2H,4H,7H-[1,2,3]triazolo[4,5-b]pyridin-4-yl}-N-[3-(propan-2-yl)bicyclo[1.1.1]pentan-1-yl]acetamide] | 5 to 50 | ≤ 500 | –
CCc1c(N2CCN(C(=O)c3c(OC)ccnc3OC)[C@H]3CC[C@@H]32)c(=O)c2nn(C3=CCOCC3)nc2n1CC(=O)NC12CC(C(C)C)(C1)C2 [Compound I-191, 2-[2-(3,6-dihydro-2H-pyran-4-yl)-6-[(1S,6S)-5-(2,4-dimethoxypyridine-3-carbonyl)-2,5-diazabicyclo[4.2.0]octan-2-yl]-5-ethyl-7-oxo-2H,4H,7H-[1,2,3]triazolo[4,5-b]pyridin-4-yl]-N-[3-(propan-2-yl)bicyclo[1.1.1]pentan-1-yl]acetamide] | 5 to 50 | ≤ 500 | –
CCc1c(N2CCN(C(=O)c3c(O)ccc4ncoc34)[C@H]3CC[C@@H]32)c(=O)c2nn(-c3ccnc(OC)c3)nc2n1CC(=O)NC12CC(C(C)C)(C1)C2 [Compound I-137, 2-{5-ethyl-6-[(1S,6S)-5-(6-hydroxy-1,3-benzoxazole-7-carbonyl)-2,5-diazabicyclo[4.2.0]octan-2-yl]-2-(2-methoxypyridin-4-yl)-7-oxo-2H,4H,7H-[1,2,3]triazolo[4,5-b]pyridin-4-yl}-N-[3-(propan-2-yl)bicyclo[1.1.1]pentan-1-yl]acetamide] | ≤ 5 | ≤ 500 | –
CCc1c(N2CCN(C(=O)c3cc(N4CCN(C)CC4)ccc3OC)[C@H]3CC[C@@H]32)c(=O)c2nn(C3=CCOCC3)nc2n1CC(=O)NC12CC(C(C)C)(C1)C2 [Compound I-165, 2-[2-(3,6-dihydro-2H-pyran-4-yl)-5-ethyl-6-[(1S,6S)-5-[2-methoxy-5-(4-methylpiperazin-1-yl)benzoyl]-2,5-diazabicyclo[4.2.0]octan-2-yl]-7-oxo-2H,4H,7H-[1,2,3]triazolo[4,5-b]pyridin-4-yl]-N-[3-(propan-2-yl)bicyclo[1.1.1]pentan-1-yl]acetamide] | 5 to 50 | 500 to 2000 | –
CCc1c(N2CCN(C(=O)c3cccc4ncoc34)[C@H]3CC[C@@H]32)c(=O)c2nn(C3=CCOCC3)nc2n1CC(=O)NC12CC(C(C)C)(C1)C2 [Compound I-52, 2-{6-[(1S,6S)-5-(1,3-benzoxazole-7-carbonyl)-2,5-diazabicyclo[4.2.0]octan-2-yl]-2-(3,6-dihydro-2H-pyran-4-yl)-5-ethyl-7-oxo-2H,4H,7H-[1,2,3]triazolo[4,5-b]pyridin-4-yl}-N-[3-(propan-2-yl)bicyclo[1.1.1]pentan-1-yl]acetamide] | 5 to 50 | 500 to 2000 | –
CCc1c(N2CCN(C(=O)c3cccc4ccoc34)[C@H]3CC[C@@H]32)c(=O)c2nn(-c3ccnc(OC)c3)nc2n1CC(=O)Nc1ccc(C(F)(F)F)cc1Cl [Compound I-119, 2-{6-[(1S,6S)-5-(1-benzofuran-7-carbonyl)-2,5-diazabicyclo[4.2.0]octan-2-yl]-5-ethyl-2-(2-methoxypyridin-4-yl)-7-oxo-2H,4H,7H-[1,2,3]triazolo[4,5-b]pyridin-4-yl}-N-[2-chloro-4-(trifluoromethyl)phenyl]acetamide] | 5 to 50 | > 5000 | –
CCc1c(N2CCN(C(=O)c3c(OC)ncc(C)c3O)CC2)c(=O)c2nn(-c3ccnc(OC)c3)nc2n1CC(=O)NC1CC2(CCCC2)C1 [Compound I-99, 2-{5-ethyl-6-[4-(4-hydroxy-2-methoxy-5-methylpyridine-3-carbonyl)piperazin-1-yl]-2-(2-methoxypyridin-4-yl)-7-oxo-2H,4H,7H-[1,2,3]triazolo[4,5-b]pyridin-4-yl}-N-{spiro[3.4]octan-2-yl}acetamide] | 5 to 50 | 500 to 2000 | –
CCc1c(N2CCN(C(=O)c3cccnc3OC)[C@H]3CC[C@@H]32)c(=O)c2nn(C3=CCOCC3)nc2n1CC(=O)NC12CC(C(C)C)(C1)C2 [Compound I-198, 2-[2-(3,6-dihydro-2H-pyran-4-yl)-5-ethyl-6-[(1S,6S)-5-(2-methoxypyridine-3-carbonyl)-2,5-diazabicyclo[4.2.0]octan-2-yl]-7-oxo-2H,4H,7H-[1,2,3]triazolo[4,5-b]pyridin-4-yl]-N-[3-(propan-2-yl)bicyclo[1.1.1]pentan-1-yl]acetamide] | 5 to 50 | ≤ 500 | –
